This note sets out measurements from publication PMC3925085, “Subditine, a New Monoterpenoid Indole Alkaloid from Bark of Nauclea subdita (Korth.) Steud. Induces Apoptosis in Human Prostate Cancer Cells” (PLoS ONE, 2014).

Structures are written as SMILES.

Assay [1] deals with LNCaP human prostate cancer cells. Put plainly: MTT cell proliferation assay, LNCaP. The assay is classed as cell-based. The method, then: Human prostate normal cell line (RWPE-1) and human prostate cancer cell lines; LNCaP and PC-3, were purchased from the American Type Culture Collection (ATCC, Manassas, Virginia, USA). LNCaP and PC-3 cells were grown in Roswell Park Memorial Institute medium (RPMI) supplemented with 10% heat-inactivated fetal bovine serum (FBS, Sigma-Aldrich, St. Louis, MO), 1% penicillin and streptomycin. RWPE-1 cells were maintained in Keratinocyte Serum Free Medium (K-SFM, ATCC) supplemented with bovine pituitary extract (BPE) and human recombinant epidermal growth factor (EGF). Mediums were supplemented with 10% heat-inactivated fetal calf serum (Sigma.), 100 U/ml penicillin and […] streptomycin (Flowlab, Sydney, Australia). All cells were maintained in a humidified atmosphere of 5% CO2 in air at 37°C incubator.
The anti-proliferative activity was evaluated by performing MTT assays as previously described with minor modifications. Briefly, cells were seeded 24 hours prior to treatment in a 96-well plate at 5×10^4 cells/well in order to obtain 70% to 80% confluent cultures. The compounds were dissolved in DMSO (Sigma Chemical Co., St. Louis, Missouri, USA) followed by a 2×serial dilution for 10 points ranged from 0.825 µM to 100 µM. The 96-well plate was incubated for 24 hours at 37°C in a humidified atmosphere with 5% CO2. At the end of incubation, 50 µl of MTT solution (2 mg/ml; Sigma) was added to each well. The plate was then incubated for 4 hours. All medium was removed and the purple formazan crystal formed at the bottom of the wells was dissolved with 200 µl DMSO for 20 minutes. The absorbance at 570 nm was read on a spectrophotometric plate reader (Hidex). The proportion of surviving cells was calculated as: […]
Dose-response curves were constructed to obtain the IC50 values. Experimental data were derived from 3 independent experiments. The selectivity index was obtained by mean IC50 RWPE-1/mean IC50 of LNCaP or PC-3.
(Tetrazolium assays rely on reduction of a dye to a coloured formazan, in cell work by metabolically active cells.)

Another assay deals with caspase-8 in LNCaP cells. As to the kind of experiment: Caspase-Glo 8 bioluminescent assay, LNCaP. Format: cell-based, human. The settings on record: 12.5 µM, throughout 30 hours. On the procedure: A time-dependent study of caspase-3/7, -8, and -9 activities was performed in triplicates using assay kits Caspase-Glo 3/7, 8, and 9 (Promega Corp.,Madison,WI, USA) on white 96-well microplate as described previously. A total of 10,000 cells per well was seeded and treated with […] of subditine (1) for 6, 12, 18, 24, and 30 hours. Then, 100 µL of the caspase-Glo reagent was added, incubated at room temperature for 30 minutes and measured using Tecan Infinite 200 Pro (Tecan, Mannedorf, Swizerland) microplate reader.

Assay [2] relates to Bcl-xL expression in PC-3 cells. As to the kind of experiment: Western blotting, Bcl-xL in PC-3. The assay is classed as cell-based, human. The conditions noted are these: 24 h. The method, then:
(§1) To determine protein expression, 1×10^6 cells/mL were seeded and treated with subditine (1) or paclitaxel for 24 h. Whole cell extracts were prepared as previously described. Briefly, cells were collected, lysed and resolved on 10% SDS-polyacrylamide gels. After electrophoresis, the proteins were transferred to PVDF membranes (Millipore), blocked with 5% nonfat dry milk in PBS-T (0.05% Tween 20) for 1 hour at room temperature. Membranes were probed with primary rabbit anti-Bcl-2, Bcl-xL or p53 antibodies followed by horseradish peroxidase (HRP)-conjugated secondary anti-rabbit antibody (Cell Signaling Technology Inc., CA, USA). Membranes were stripped and reprobed with mouse anti-β-actin antibody as loading control (Santa Cruz Biotechnology Inc.). Protein-antibody complexes were detected with Amersham ECL prime Western blotting detection reagent (GE Healthcare, USA).
Background: A western blot detects proteins with antibodies after separation by electrophoresis.

The subject of assay [3] is p53 expression in PC-3 cells. Put plainly: Western blotting, p53 in PC-3. Format: cell-based, human. The settings on record: PC-3 (p53-null), 24 h. On the procedure: as §1

In assay [1] (Homo sapiens, MTT, 24 hours, LNCaP, mean ± S.D.), `Cc1ncc2c(=O)n3c(cc2c1C=O)-c1[nH]c2ccccc2c1CC3` [Subditine, subditine] registered an IC50 of 12.2 ± 0.19 µM. Moreover, the “folds more potent against LNCaP than normal prostate cells RWPE-1” value in assay [1] (LNCaP vs RWPE-1) is 2.5 folds. Also, the “selectivity index (SI) LNCaP” value in assay [1] (mean IC50 RWPE-1/mean IC50 of LNCaP) is recorded as 2.49. Moreover, in the assay with caspase-8 in LNCaP cells, the “caspase 8 activity” value is listed as “No significant fold-change”. Also, the Bcl-xL protein expression entry in assay [2] (PC-3, 12.5 µM, compared to control) is on record as “no significant change”; in assay [2] (PC-3, 25 and 50 µM), “drastically down-regulated”. In addition, in assay [3], the p53 expression entry is “did not restore or enhance”.

As usually defined, the IC50 is the concentration that inhibits the measured activity by half. A low value points to greater potency in that assay.
